Measurements published in ChEMBL document CHEMBL1201862, “PubChem BioAssay data set” (2004).
Active and inactive are the calls of the source.

Legend:
[1] = luciferase reporter signal suppression in cells – H4 neuroglioma cells, luminescence, dose response (AID 1990); assay type: functional, cell-based
[2] = Luminescence Cell-Based Dose Response HTS to Identify Inhibitors of 5'UTR Stem-Loop Driven Prion Protein mRNA Translation in H4 Neuroglioblastoma Cells. [Related pubchem assays: 1827 (Project Summary), 1813 (Primary HTS)]; assay type: functional
[3] = alpha-synuclein stem-loop luciferase translation blockers – H4 neuroglioma cells, luminescence, confirmation (AID 1988); assay type: functional, cell-based
[4] = HEK-293T viability loss after treatment – luminescence, T-cell screen hits, cytotoxicity control for TCR NF-kB inhibitor project, dose response (AID 489026); assay type: functional, cell-based;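 also: cells exposed to compound about 14 hours before the viability readout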
Cysteine protease ATG4B = target: T1, Cysteine protease ATG4B (Homo sapiens, UniProt Q9Y4P1); assay type: functional;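 also: Fluorescence-based dose-response confirmation assay measuring inhibition of ATG4B activity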
T1 sequence (Q9Y4P1 whole entry): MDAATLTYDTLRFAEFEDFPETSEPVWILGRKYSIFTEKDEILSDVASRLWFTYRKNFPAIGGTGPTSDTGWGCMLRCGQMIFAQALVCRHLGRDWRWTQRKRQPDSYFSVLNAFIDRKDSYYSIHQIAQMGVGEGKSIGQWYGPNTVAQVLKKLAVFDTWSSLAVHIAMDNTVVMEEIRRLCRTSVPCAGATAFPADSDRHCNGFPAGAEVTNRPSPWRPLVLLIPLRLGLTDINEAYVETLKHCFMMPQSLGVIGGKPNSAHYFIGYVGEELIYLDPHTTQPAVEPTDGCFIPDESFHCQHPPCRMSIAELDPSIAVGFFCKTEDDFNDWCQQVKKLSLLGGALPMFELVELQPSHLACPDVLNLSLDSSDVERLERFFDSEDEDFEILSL

Phospholipase A2 = Phospholipase A2 (Homo sapiens, UniProt P04054); assay type: functional;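 also: confirmatory dose-response counterscreen on phospholipase A2, testing hits that came from an ultra-high-throughput screen for ATG4B inhibitors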
Chain of Phospholipase A2 (P04054 whole entry): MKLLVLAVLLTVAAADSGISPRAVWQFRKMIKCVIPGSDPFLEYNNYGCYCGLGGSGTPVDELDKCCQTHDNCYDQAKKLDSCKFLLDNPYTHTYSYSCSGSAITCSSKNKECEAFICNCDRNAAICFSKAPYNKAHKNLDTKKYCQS

[5] = target: T2, Orexin/Hypocretin receptor type 1 (Homo sapiens, UniProt O43613); assay: Homogeneous Time Resolved Fluorescence (HTRF)-based cell-based high throughput dose response assay for antagonists of the orexin 1 receptor (OX1R; HCRTR1). [Related pubchem assays (depositor defined):AID434989, AID435008, AID463079, AID485270, AID492963, AID492964, AID492965, AID493232, AID504717, AID504718]; assay type: functional
T2 sequence (O43613 whole entry): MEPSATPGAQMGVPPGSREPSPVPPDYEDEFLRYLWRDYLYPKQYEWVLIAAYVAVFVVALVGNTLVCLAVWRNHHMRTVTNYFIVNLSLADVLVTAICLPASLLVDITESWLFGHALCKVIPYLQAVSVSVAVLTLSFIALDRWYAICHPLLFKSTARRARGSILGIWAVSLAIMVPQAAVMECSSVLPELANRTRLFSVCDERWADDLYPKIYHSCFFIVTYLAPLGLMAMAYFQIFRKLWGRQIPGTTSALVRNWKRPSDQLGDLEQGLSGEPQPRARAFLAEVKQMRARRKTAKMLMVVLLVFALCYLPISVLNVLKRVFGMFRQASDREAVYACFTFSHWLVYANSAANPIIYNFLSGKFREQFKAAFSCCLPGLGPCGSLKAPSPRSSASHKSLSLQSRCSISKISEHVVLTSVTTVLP

CHO-K1 = assay: (§1) Counterscreen for antagonists of the orexin 1 receptor (OX1R; HCRTR1): Homogeneous time resolved fluorescence (HTRF)-based cell-based dose response assay to identify antagonists of the parental CHO-K1 cell line. [Related pubchem assays (depositor defined):AID434989, AID435008, AID463079, AID485270, AID492963, AID492964, AID492965, AID493232, AID504699, AID504701]; assay type: functional; conditions: Cricetulus griseus
[6] = as §1, with “Fluorescence-based” for “Homogeneous time resolved fluorescence (HTRF)-based”, “cell-based high throughput” for “cell-based”, “CHO” for “CHO-K1”; assay type: functional
[7] = target: T2, Orexin/Hypocretin receptor type 1; assay: Fluorescence-based cell-based high throughput dose response assay for antagonists of the orexin 1 receptor (OX1R; HCRTR1). [Related pubchem assays (depositor defined):AID434989, AID435008, AID463079, AID485270, AID492963, AID492964, AID492965, AID493232, AID504717, AID504718]; assay type: functional
Streptococcus = assay: GAS UMAA2166 growth inhibition – luminescence, BacTiterGlo, counter-screen for streptokinase expression inhibitor project, dose response (AID 1915); assay type: functional, organism-based;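 also: potency for reduction of bacterial viability or growth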
[8] = target: T3, RNA-binding protein pos-1 (Caenorhabditis elegans, UniProt G5EF15); assay: disruptors of C. elegans POS-1 RNA interaction – biochemical, fluorescence polarization, dose response (AID 1964);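 also: purified POS-1 fused to maltose binding protein made in E. coli; potency of compounds blocking POS-1 binding to fluorescent RNA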
T3 sequence (G5EF15 whole entry): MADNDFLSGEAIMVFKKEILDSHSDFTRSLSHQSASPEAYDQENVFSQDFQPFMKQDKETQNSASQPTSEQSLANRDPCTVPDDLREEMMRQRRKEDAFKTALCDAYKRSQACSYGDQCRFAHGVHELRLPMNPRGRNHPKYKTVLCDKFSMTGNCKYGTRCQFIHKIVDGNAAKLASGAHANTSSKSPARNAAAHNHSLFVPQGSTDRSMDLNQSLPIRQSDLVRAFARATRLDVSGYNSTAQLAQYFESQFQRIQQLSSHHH

[9] = target: T4, Zinc finger protein mex-5 (Caenorhabditis elegans, UniProt Q9XUB2); assay: potency of MEX-5 RNA-binding blockers – biochemical, C. elegans, fluorescence polarization, dose response (AID 1960)
T4 sequence (Q9XUB2 whole entry): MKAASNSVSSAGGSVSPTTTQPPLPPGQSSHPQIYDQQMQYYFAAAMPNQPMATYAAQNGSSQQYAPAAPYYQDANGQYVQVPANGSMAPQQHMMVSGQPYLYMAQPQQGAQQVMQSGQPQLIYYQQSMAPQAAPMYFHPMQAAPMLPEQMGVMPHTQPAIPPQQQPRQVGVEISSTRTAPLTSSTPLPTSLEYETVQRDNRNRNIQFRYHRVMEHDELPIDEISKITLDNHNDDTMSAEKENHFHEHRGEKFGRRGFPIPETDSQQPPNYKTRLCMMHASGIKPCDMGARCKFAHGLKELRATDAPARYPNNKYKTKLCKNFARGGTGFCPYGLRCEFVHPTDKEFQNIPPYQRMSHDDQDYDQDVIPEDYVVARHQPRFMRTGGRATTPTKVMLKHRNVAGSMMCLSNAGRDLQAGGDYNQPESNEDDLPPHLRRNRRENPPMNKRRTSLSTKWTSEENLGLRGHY

[10] = tested on: Streptococcus sp. 'group A'; assay: Streptococcus pyogenes SK(-)GAS viability under kanamycin – luminescence, BacTiterGlo, confirmation, counter-screen for streptokinase expression inhibitor project, dose response (AID 1900); assay type: functional, organism-based
Nonstructural protein 1 = Nonstructural protein 1 (Influenza A virus, UniProt Q194T2); assay type: functional, Influenza A virus (A/California/07/2009(H1N1))
Chain of Nonstructural protein 1 (Q194T2 whole entry): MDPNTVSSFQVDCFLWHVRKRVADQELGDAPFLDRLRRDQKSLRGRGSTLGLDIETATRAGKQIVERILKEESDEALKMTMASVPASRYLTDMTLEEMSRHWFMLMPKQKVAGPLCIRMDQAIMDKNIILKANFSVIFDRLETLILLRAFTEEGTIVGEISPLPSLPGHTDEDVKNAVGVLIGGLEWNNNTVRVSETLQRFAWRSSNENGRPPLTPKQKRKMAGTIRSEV

Protein skinhead-1 = target: T5, Protein skinhead-1 (Caenorhabditis elegans, UniProt P34707); assay type: functional
T5 sequence (P34707 whole entry): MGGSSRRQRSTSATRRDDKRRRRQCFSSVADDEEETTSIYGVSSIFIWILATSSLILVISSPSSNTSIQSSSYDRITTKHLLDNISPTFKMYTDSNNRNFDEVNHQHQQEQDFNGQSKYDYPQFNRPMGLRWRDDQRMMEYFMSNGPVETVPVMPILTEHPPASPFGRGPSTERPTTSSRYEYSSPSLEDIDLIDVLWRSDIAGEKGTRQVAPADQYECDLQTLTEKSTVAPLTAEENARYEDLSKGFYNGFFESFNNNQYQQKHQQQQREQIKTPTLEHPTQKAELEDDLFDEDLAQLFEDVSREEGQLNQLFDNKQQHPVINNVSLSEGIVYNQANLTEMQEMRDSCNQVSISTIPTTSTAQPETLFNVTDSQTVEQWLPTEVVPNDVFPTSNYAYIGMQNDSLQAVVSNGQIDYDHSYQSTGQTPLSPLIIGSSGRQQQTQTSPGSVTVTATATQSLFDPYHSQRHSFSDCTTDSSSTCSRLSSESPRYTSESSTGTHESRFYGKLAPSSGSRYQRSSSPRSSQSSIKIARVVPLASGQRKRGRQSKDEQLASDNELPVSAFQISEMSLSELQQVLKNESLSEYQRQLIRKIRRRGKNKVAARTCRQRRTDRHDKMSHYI

A-375 [11] = assay: MITF: Counter assay: A375 proliferation Measured in Cell-Based System Using Plate Reader - 2084-03_Inhibitor_Dose_DryPowder_Activity. [Related pubchem assays (depositor defined):AID488944]; assay type: functional; conditions: Homo sapiens
[12] = target: T6, Microphthalmia-associated transcription factor (Homo sapiens, UniProt O75030); assay: reducers of TRPM1 reporter luminescence, concentration series – cell-based, SK-MEL-5, cherry-picked, set 3, MITF inhibitor project, dose response (AID 493073); assay type: functional;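 also: SK-MEL-5 melanoma cells with luciferase driven by the MITF target TRPM1 promoter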
T6 sequence (O75030 whole entry): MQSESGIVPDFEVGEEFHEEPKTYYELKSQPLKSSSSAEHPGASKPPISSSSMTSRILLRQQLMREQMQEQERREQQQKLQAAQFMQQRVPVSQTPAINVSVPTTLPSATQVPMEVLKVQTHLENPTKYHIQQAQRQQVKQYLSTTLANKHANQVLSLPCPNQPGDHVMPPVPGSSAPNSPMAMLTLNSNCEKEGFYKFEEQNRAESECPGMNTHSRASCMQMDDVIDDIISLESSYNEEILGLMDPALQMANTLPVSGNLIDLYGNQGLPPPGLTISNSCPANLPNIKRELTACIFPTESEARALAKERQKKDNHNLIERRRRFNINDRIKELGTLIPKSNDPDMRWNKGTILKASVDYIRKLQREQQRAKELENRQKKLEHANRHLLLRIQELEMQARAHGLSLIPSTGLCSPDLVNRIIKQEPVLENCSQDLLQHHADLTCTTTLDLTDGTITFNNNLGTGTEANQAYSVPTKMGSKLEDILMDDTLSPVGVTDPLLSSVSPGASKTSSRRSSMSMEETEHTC

A-375 [13] = assay: proliferation inhibition in MITF-low A375 cells – cell-based, cherry-pick samples, set 2, counter-screen for MITF modulator project, dose response (AID 540335); assay type: functional; conditions: Homo sapiens
cells = assay type: functional

Compound: COC(=O)c1ccc(C)c(NS(=O)(=O)c2ccc3c(c2)OCCO3)c1
- EC50 [1]: 8.4 µM (inconclusive)
- EC50 [2]: 9.9 µM (active)
- EC50 [3]: 1.3 µM (active)
- IC50 [4]: > 80 µM (inactive)

Compound: Clc1ccccc1CN1CCN(c2ccccc2Cl)CC1
- IC50 (Cysteine protease ATG4B): 11.5 µM (active)
- IC50 (Phospholipase A2): 6.52 µM (active)

Compound: O=C1N[C@@H](c2ccccc2)COC(=O)[C@@H](Cc2ccc(F)cc2)C/C=C\C[C@@H]1CC(=O)N(CCO)Cc1ccccc1
- IC50 [5]: 12 µM (inactive)
- IC50 (CHO-K1): > 66.2 µM (inactive)
- IC50 [6]: > 49.7 µM (inactive)
- IC50 [7]: 13.8 µM (inactive)

Compound: Cc1ncc(CO)c(/C=N/NC(=O)c2cc(Br)ccc2O)c1O
- EC50 (Streptococcus): 1.06 µM (active)
- EC50 [8]: > 300 µM (not active)
- EC50 [9]: 5.72 µM (active)
- EC50 [10]: 1.39 µM (active)
- IC50 (Nonstructural protein 1): 11.3 µM (active)

Compound: CCCc1ccc(OC(=O)c2cccs2)cc1
- IC50 (Cysteine protease ATG4B): 10.7 µM (active)
- IC50 (Phospholipase A2): 10.2 µM (active)

Compound: CCN(CC)c1ccc(C(=S)N2CCN(c3ccccc3)CC2)cc1
- IC50 (Nonstructural protein 1): > 100 µM (active)
- IC50 (Protein skinhead-1): > 100 µM (inactive)

Compound: Oc1c(CN2CCCC2)cc(COCc2ccccc2)c2cccnc12
- AC50 (A-375 [11]): 32.7 µM (active)
- AC50 [12]: 6.15 µM (active)
- IC50 (Nonstructural protein 1): 3.78 µM (active)

Compound: O=C(N/N=C/C=C/c1ccccc1)c1ccccn1
- AC50 (A-375 [11]): > 35 µM (active)
- AC50 (A-375 [13]): > 35 µM (active)
- IC50 (cells): 11.2 µM (active)
